Assay results taken from article PMC12449377, “Psychedelic-like effects induced by 2,5-dimethoxy-4-iodoamphetamine, lysergic acid diethylamide, and psilocybin in male and female C57BL/6J mice” (Psychopharmacology, 2025).
Read-outs that look alike come from different tables or passages of the source.

Key:
5-HT1A [1] = target: T1, 5-HT1A (Mus musculus, UniProt Q64264); assay: Competition binding vs [3H]8-OH-DPAT in mouse brain membranes
T1 construct: tissue BioIVT; host or cells: whole C57BL/6 mouse brain minus cerebellum, male and female
T1 sequence (Q64264 1-421): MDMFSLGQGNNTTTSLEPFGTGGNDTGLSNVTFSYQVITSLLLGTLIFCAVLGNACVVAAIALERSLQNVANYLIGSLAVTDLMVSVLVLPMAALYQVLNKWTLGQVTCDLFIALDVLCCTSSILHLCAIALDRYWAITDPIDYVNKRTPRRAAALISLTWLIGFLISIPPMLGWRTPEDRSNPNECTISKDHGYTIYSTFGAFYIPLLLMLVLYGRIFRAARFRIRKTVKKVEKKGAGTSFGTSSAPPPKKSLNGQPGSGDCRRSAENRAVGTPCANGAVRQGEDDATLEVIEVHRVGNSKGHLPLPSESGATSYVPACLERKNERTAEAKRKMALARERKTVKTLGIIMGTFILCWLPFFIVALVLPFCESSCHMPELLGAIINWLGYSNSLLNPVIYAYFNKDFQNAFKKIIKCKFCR
Protocol: (§1) Competition binding studies were conducted in mouse brain tissue as previously described (Glatfelter et al. [2022b]). Briefly, the experiments utilized membranes prepared from whole C57BL/6 mouse brain minus cerebellum (BioIVT, Westbury, NY, USA). […] We assessed the ability of test drugs to compete for [^3H]M100907 binding at 5-HT2A (1 nM) or [^3H]8-OH-DPAT binding at 5-HT1A (0.5 nM). Radioligands were purchased commercially (PerkinElmer, Boston, MA, USA). Nonspecific binding was determined using 10 µM ketanserin for 5-HT2A and serotonin for 5-HT1A. All data represent 3 experiments performed in triplicate.
(§2) Concentration-response data were fit to a single site non-linear regression model. For the HTR studies, potencies were determined from the ascending limb of the dose-response curves using ED50 potency values from [agonist] vs. response (variable slope, four parameter) least squares fit non-linear regression analyses, whereas efficacy was defined by the top output parameter or Emax from the aforementioned analyses. […] Best-fit values for ED50 and Emax from non-linear regression analyses were compared by extra sum-of-squares F tests. Mean effects for each behavioral endpoint were compared using two-way ANOVA (dose x sex), followed by Sidak’s multiple comparisons post-hoc test. Mean effects for pooled mouse behavioral data were compared via Welch’s ANOVA with Dunnett’s T3 post-hoc test, comparing all doses to saline vehicle controls (0 mg/kg). Alpha was set to 0.05 for all analyses.

5-HT2A = target: T2, 5-HT2A (Mus musculus, UniProt P35363); assay: Competition binding vs [3H]M100907 in mouse brain membranes
T2 construct: tissue BioIVT; host or cells: whole C57BL/6 mouse brain minus cerebellum, male and female
T2 sequence (P35363 whole entry): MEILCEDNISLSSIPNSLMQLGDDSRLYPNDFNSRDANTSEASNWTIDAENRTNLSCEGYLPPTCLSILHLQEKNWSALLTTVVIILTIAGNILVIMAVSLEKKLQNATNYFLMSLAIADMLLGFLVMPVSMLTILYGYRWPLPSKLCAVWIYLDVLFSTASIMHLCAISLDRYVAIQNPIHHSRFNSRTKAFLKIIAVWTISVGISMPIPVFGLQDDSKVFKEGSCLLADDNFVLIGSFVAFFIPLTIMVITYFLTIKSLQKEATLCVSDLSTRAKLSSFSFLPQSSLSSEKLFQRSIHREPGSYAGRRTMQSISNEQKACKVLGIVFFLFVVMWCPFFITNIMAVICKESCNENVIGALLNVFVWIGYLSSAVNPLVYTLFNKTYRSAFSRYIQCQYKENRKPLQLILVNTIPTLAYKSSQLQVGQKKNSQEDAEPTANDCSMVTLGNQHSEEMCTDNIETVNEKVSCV
Protocol: as §1, §2

C57BL/6J mice [2] = assay: Locomotor activity (distance traveled) in mice; type: in vivo, mouse; conditions: for Locomotor Activity (cm) Mean: 30 min
Protocol: (§3) At 1–2 weeks prior to the beginning of experiments, mice were habituated to handling and receiving s.c. saline injections. On the day of an experiment, mice were acclimated to the testing room in their home cage for at least 30 min prior to the start of sessions. Prior to each session, mice were weighed, and resting body temperatures were recorded. Mice were then placed into experimental chambers for acclimation. Behavioral testing was carried out in TruScan mouse locomotor arenas equipped with photobeam arrays (Coulbourn Instruments, Holliston, MA, USA) that were modified with cylindrical inserts and transparent flooring to aid in semi-automated HTR detection as previously described (Glatfelter et al. [2022a]). After 5 min of acclimation, basal body temperature was recorded followed by s.c. injection of drug or vehicle, and mice were returned to test chambers for 30 min. Dose ranges for each drug were 0.03–10 mg/kg for DOI, 0.03–10 mg/kg for psilocybin, and 0.003–1 mg/kg for LSD. Mice were randomly assigned to specific doses at the beginning of the experiment and received different doses at each session.
(§4) During each session, locomotor activity was quantified via photobeam tracking of distance traveled in cm. Overhead GoPro Hero Black 7 video recordings (120 fps, 960p resolution) were analyzed using a commercially available software package from Clever Sys Inc. (Reston, VA, USA) for the measurement of HTR activity. Mouse body temperature was also collected post-session to calculate temperature change values (basal - post session temperature reading).
as §2

C57BL/6J mice [3] = assay: Head twitch response (HTR) in mice; type: in vivo, mouse; conditions: for HTR (total events) Mean: 30 min; for ED50: Mus musculus, sc; for HTR ♀ Emax (95% CI) / HTR ♂ Emax (95% CI): top of regression fit
Protocol: Each drug was tested using groups of 12 mice per sex (i.e., 24 total mice per drug). Experimental sessions were conducted once every 1–2 weeks for 2 months per drug. Experimental sessions were spaced apart by at least 1 week to minimize the potential for tolerance to drug effects (Canal and Morgan [2012]; Darmani et al. [1990a]; de la Fuente Revenga et al. [2022]). Experiments were conducted during the light phase (1300–1700 local time; lights on = 0700 in a 12/12 light/dark cycle).
as §3, §4, §2

C57BL/6J mice [4] = conditions: range over Table 1 and earlier studies; ref Glatfelter et al. [2022b], Sherwood et al. [2020]; cited from earlier work
C57BL/6J mice [5] = assay: Body temperature change in mice; type: in vivo, mouse; conditions: post 30 min session
Protocol: All mice were injected s.c. with temperature transponders (14 × 2 mm, model IPTT-300, Avidity Science, Waterford Wisconsin, USA) under brief isoflurane immobilization, and were given at least 1 week to recover (Glatfelter et al. [2022b]). Mice were single housed post-implant, and for the duration of the experiments, to protect their devices from being removed by cage mates. Temperature was measured noninvasively using a handheld reader which is sensitive to the transponder signals.
as §3, §4, §2

5-HT1A [6] = target: T1, 5-HT1A; conditions: previously determined, used to calculate Ki; read-out: Kd of radioligand at 5-HT1A; cited from earlier work

CN(C)CCc1c[nH]c2cccc(O)c12 [Psilocin]
Ki (5-HT1A [1]; 5-HT1A binding affinity (Ki), males and females, male and female mouse brain membranes, summary statement): 1 to 100 nM
Ki (5-HT1A [1]; [3H]8-OH-DPAT Binding ♀ m5-HT1A Ki, female mouse brain membranes): 100 nM
Ki (5-HT1A [1]; [3H]8-OH-DPAT Binding ♂ m5-HT1A Ki, male mouse brain membranes): 113 nM
Ki (5-HT2A; 5-HT2A binding affinity (Ki), males and females, male and female mouse brain membranes, summary statement): 1 to 100 nM
Ki (5-HT2A; [3H]M100907 Binding ♀ m5-HT2A Ki, female mouse brain membranes): 113 nM
Ki (5-HT2A; [3H]M100907 Binding ♂ m5-HT2A Ki, male mouse brain membranes): 110 nM

CN(C)CCc1c[nH]c2cccc(OP(=O)(O)O)c12 [Psilocybin, 4-phosphoryloxy-N,N-dimethyltryptamine]
Locomotor Activity (cm) Mean (C57BL/6J mice [2]; 0.03 mg/kg s.c., female mice): 2480.4 cm
Locomotor Activity (cm) Mean (C57BL/6J mice [2]; 0.03 mg/kg s.c., male mice): 2063.8 cm
Locomotor Activity (cm) Mean (C57BL/6J mice [2]; 0.03 mg/kg s.c., pooled sexes): 2272 cm
Locomotor Activity (cm) Mean (C57BL/6J mice [2]; 0.1 mg/kg s.c., female mice): 2686.5 cm
Locomotor Activity (cm) Mean (C57BL/6J mice [2]; 0.1 mg/kg s.c., male mice): 2877.2 cm
Locomotor Activity (cm) Mean (C57BL/6J mice [2]; 0.1 mg/kg s.c., pooled sexes): 2782 cm
Locomotor Activity (cm) Mean (C57BL/6J mice [2]; 0.3 mg/kg s.c., female mice): 3293.8 cm
Locomotor Activity (cm) Mean (C57BL/6J mice [2]; 0.3 mg/kg s.c., male mice): 3064.5 cm
Locomotor Activity (cm) Mean (C57BL/6J mice [2]; 0.3 mg/kg s.c., pooled sexes): 3179 cm
Locomotor Activity (cm) Mean (C57BL/6J mice [2]; 1 mg/kg s.c., female mice): 2900.9 cm
Locomotor Activity (cm) Mean (C57BL/6J mice [2]; 1 mg/kg s.c., male mice): 3532.9 cm
Locomotor Activity (cm) Mean (C57BL/6J mice [2]; 1 mg/kg s.c., pooled sexes): 3188 cm
Locomotor Activity (cm) Mean (C57BL/6J mice [2]; 3 mg/kg s.c., female mice): 2041.8 cm
Locomotor Activity (cm) Mean (C57BL/6J mice [2]; 3 mg/kg s.c., male mice): 2018.9 cm
Locomotor Activity (cm) Mean (C57BL/6J mice [2]; 3 mg/kg s.c., pooled sexes): 2029 cm
Locomotor activity effect (C57BL/6J mice [2]; 10 mg/kg s.c.): decreased locomotor activity
Locomotor Activity (cm) Mean (C57BL/6J mice [2]; 10 mg/kg s.c., female mice): 962.1 cm
Locomotor Activity (cm) Mean (C57BL/6J mice [2]; 10 mg/kg s.c., male mice): 741.5 cm
Locomotor Activity (cm) Mean (C57BL/6J mice [2]; 10 mg/kg s.c., pooled sexes): 851.8 cm
Locomotor activity effect (C57BL/6J mice [2]; 0.3–1 mg/kg s.c.): mild increases in locomotor activity
HTR (total events) Mean (C57BL/6J mice [3]; 0.03 mg/kg s.c., female mice): 8.0 total events
HTR (total events) Mean (C57BL/6J mice [3]; 0.03 mg/kg s.c., male mice): 7.6 total events
HTR (total events) Mean (C57BL/6J mice [3]; 0.03 mg/kg s.c., pooled sexes): 7.8 total events
HTR (total events) Mean (C57BL/6J mice [3]; 0.1 mg/kg s.c., female mice): 11.8 total events
HTR (total events) Mean (C57BL/6J mice [3]; 0.1 mg/kg s.c., male mice): 13.0 total events
HTR (total events) Mean (C57BL/6J mice [3]; 0.1 mg/kg s.c., pooled sexes): 12.4 total events
HTR (total events) Mean (C57BL/6J mice [3]; 0.3 mg/kg s.c., female mice): 27.3 total events
HTR (total events) Mean (C57BL/6J mice [3]; 0.3 mg/kg s.c., male mice): 26.8 total events
HTR (total events) Mean (C57BL/6J mice [3]; 0.3 mg/kg s.c., pooled sexes): 27.1 total events
HTR (total events) Mean (C57BL/6J mice [3]; 1 mg/kg s.c., female mice): 30.2 total events
HTR (total events) Mean (C57BL/6J mice [3]; 1 mg/kg s.c., male mice): 39.2 total events
HTR (total events) Mean (C57BL/6J mice [3]; 1 mg/kg s.c., pooled sexes): 34.7 total events
HTR (total events) Mean (C57BL/6J mice [3]; 3 mg/kg s.c., female mice): 47.2 total events
HTR (total events) Mean (C57BL/6J mice [3]; 3 mg/kg s.c., male mice): 29.4 total events
HTR (total events) Mean (C57BL/6J mice [3]; 3 mg/kg s.c., pooled sexes): 38.3 total events
HTR (total events) Mean (C57BL/6J mice [3]; 10 mg/kg s.c., female mice): 21.8 total events
HTR (total events) Mean (C57BL/6J mice [3]; 10 mg/kg s.c., male mice): 18.7 total events
HTR (total events) Mean (C57BL/6J mice [3]; 10 mg/kg s.c., pooled sexes): 20.3 total events
ED50 (C57BL/6J mice [3]; female mice, ascending limb of dose-response curve, read-out: HTR ♀ ED50 (95% CI)): 0.31 mg/kg
ED50 (C57BL/6J mice [3]; male mice, ascending limb of dose-response curve, read-out: HTR ♂ ED50 (95% CI)): 0.17 mg/kg
ED50 (C57BL/6J mice [3]; pooled male and female mice, read-out: HTR ♂+♀ ED50 (95% CI)): 0.22 mg/kg
Duration of HTR effect in the session (C57BL/6J mice [3]; peak/active doses, 30 min session): trended to baseline levels by the end of the testing session
Time of peak effects on HTR post drug administration (C57BL/6J mice [3]; s.c., both sexes, 30 min session): 5 to 10 min
HTR ♀ Emax (95% CI) (C57BL/6J mice [3]; s.c., female mice): 43 (35–54) HTR events
HTR ♀ Emax (95% CI) (C57BL/6J mice [3]; s.c., female mice, listed as psilocybin): 43 HTR events
HTR ♂ Emax (95% CI) (C57BL/6J mice [3]; s.c., male mice): 35 (30–40) HTR events
HTR ♂ Emax (95% CI) (C57BL/6J mice [3]; s.c., male mice, listed as psilocybin): 35 HTR events
HTR ♂+♀ Emax (95% CI) (C57BL/6J mice [3]; s.c., pooled male and female mice): 38 (33–47) HTR events
ED50 doses inducing HTR in C57BL/6J mice (C57BL/6J mice [4]): 0.22 to 0.40 mg/kg
Body Temp Δ (°C) Mean (C57BL/6J mice [5]; 0.03 mg/kg s.c., female mice): 0.2 °C
Body Temp Δ (°C) Mean (C57BL/6J mice [5]; 0.03 mg/kg s.c., male mice): -0.4 °C
Body Temp Δ (°C) Mean (C57BL/6J mice [5]; 0.03 mg/kg s.c., pooled sexes): -0.1 °C
Body Temp Δ (°C) Mean (C57BL/6J mice [5]; 0.1 mg/kg s.c., female mice): 0.1 °C
Body Temp Δ (°C) Mean (C57BL/6J mice [5]; 0.1 mg/kg s.c., male mice): 0.3 °C
Body Temp Δ (°C) Mean (C57BL/6J mice [5]; 0.1 mg/kg s.c., pooled sexes): 0.2 °C
Body Temp Δ (°C) Mean (C57BL/6J mice [5]; 0.3 mg/kg s.c., female mice): 0.04 °C
Body Temp Δ (°C) Mean (C57BL/6J mice [5]; 0.3 mg/kg s.c., male mice): 0.1 °C
Body Temp Δ (°C) Mean (C57BL/6J mice [5]; 0.3 mg/kg s.c., pooled sexes): 0.1 °C
Body Temp Δ (°C) Mean (C57BL/6J mice [5]; 1 mg/kg s.c., female mice): 0.0 °C
Body Temp Δ (°C) Mean (C57BL/6J mice [5]; 1 mg/kg s.c., male mice): -1.0 °C
Body Temp Δ (°C) Mean (C57BL/6J mice [5]; 1 mg/kg s.c., pooled sexes): -0.4 °C
Body Temp Δ (°C) Mean (C57BL/6J mice [5]; 3 mg/kg s.c., female mice): -1.0 °C
Body Temp Δ (°C) Mean (C57BL/6J mice [5]; 3 mg/kg s.c., male mice): -1.3 °C
Body Temp Δ (°C) Mean (C57BL/6J mice [5]; 3 mg/kg s.c., pooled sexes): -1.2 °C
Body Temp Δ (°C) Mean (C57BL/6J mice [5]; 10 mg/kg s.c., female mice): -3.3 °C
Body Temp Δ (°C) Mean (C57BL/6J mice [5]; 10 mg/kg s.c., male mice): -4.1 °C
Body Temp Δ (°C) Mean (C57BL/6J mice [5]; 10 mg/kg s.c., pooled sexes): -3.7 °C

CCCN(CCC)C1CCc2cccc(O)c2C1 (centres unmarked) [[^3H]8-OH-DPAT]
Kd (5-HT1A [6]): 1.03 nM
